The values that follow come from patent US20240150377A1, “MODULATORS OF CYSTIC FIBROSIS TRANSMEMBRANE CONDUCTANCE REGULATOR” (VERTEX PHARMACEUTICALS INCORPORATED, priority 2020, published 2024).

The structures appear in SMILES notation. Some results are limits rather than exact numbers.

The target of one assay is T1, CFTR (Homo sapiens, UniProt P13569, DEL508-508).
T1 construct: endogenous in cells; host or cells: primary human bronchial epithelial cells from CF subjects (F508del/MF-HBE), differentiated at air-liquid interface
T1 sequence (P13569 with tags, fused parts or gaps DEL508-508): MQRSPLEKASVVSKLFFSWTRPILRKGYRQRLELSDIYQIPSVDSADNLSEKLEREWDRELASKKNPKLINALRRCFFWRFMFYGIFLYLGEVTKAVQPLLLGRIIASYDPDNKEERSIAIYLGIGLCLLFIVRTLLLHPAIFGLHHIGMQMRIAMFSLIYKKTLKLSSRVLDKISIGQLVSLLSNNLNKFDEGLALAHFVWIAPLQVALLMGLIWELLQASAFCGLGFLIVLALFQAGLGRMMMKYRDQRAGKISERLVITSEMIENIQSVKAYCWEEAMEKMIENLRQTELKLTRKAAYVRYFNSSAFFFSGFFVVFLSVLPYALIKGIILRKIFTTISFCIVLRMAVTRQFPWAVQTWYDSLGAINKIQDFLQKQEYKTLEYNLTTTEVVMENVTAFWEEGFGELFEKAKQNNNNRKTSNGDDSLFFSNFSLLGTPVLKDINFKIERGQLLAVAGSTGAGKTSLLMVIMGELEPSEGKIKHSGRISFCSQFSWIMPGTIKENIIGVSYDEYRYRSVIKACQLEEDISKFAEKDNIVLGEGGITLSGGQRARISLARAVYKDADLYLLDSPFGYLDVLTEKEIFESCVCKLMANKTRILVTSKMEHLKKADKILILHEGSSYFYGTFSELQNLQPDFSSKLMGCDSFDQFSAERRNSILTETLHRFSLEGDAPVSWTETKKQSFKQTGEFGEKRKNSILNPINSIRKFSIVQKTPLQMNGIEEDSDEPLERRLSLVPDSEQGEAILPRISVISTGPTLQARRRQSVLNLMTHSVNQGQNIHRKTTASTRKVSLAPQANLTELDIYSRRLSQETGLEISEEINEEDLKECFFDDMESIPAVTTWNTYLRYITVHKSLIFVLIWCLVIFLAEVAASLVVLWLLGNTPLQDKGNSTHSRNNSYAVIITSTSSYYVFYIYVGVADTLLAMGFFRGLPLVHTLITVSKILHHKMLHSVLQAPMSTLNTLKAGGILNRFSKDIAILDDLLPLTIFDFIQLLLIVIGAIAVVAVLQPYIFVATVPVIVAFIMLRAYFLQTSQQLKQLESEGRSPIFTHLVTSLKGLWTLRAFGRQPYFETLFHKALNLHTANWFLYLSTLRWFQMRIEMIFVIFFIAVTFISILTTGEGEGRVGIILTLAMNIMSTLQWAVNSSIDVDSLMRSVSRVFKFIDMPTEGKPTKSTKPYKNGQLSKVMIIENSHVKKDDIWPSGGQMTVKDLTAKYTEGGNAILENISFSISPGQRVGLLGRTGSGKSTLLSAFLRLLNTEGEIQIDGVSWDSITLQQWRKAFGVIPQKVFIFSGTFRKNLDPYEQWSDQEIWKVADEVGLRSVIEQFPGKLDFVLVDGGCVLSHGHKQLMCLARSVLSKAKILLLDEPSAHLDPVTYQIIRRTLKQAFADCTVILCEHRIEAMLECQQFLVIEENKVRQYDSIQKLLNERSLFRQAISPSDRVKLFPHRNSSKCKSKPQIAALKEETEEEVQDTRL
Briefly: HBE assay: Ussing chamber assay of CFTR-mediated short-circuit currents. The following applies: Table 12; at 10 μM; read-out: HBE Activity at 10 μM (%). The assay is classed as cell-based. The essentials:
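CFTR-mediated Isc (μA/cm²) equals the peak response to apical 20 μM forskolin minus the residual after a 20 μM each BPO/GlyH-101/CFTR inhibitor 172 cocktail, recorded in Ussing chambers at Vhold 0 mV, 37 °C, pH 7.4, with 30 μM apical amiloride. Cells were F508del/MF HBE cultures preincubated 18-24 h with corrector (concentration range or 10 μM) plus 1 μM ivacaftor in 20% human serum.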
With `Cc1cccc(C)c1-c1cc2nc(n1)NS(=O)(=O)c1cccc(c1)C(=O)N(CC(=O)NCCN1CCOCC1)[C@H](CC(C)(C)C)CO2` [Compound 166], the activation at 10 µM is > 600%.

Take `Cc1cccc(C)c1-c1cc2nc(n1)NS(=O)(=O)c1cccc(c1)C(=O)N(Cc1nc(C(C)(C)C)co1)[C@H](CC(C)(C)C)CO2` [Compound 167]: the activation at 10 µM is > 600%.

Turning to `Cc1cccc(C)c1-c1cc2nc(n1)NS(=O)(=O)c1cccc(c1)C(=O)N(Cc1ncc(C(C)(C)C)s1)[C@H](CC(C)(C)C)CO2` [Compound 174], the activation at 10 µM is > 600%.

Staying with this assay, now noted: Table 13; at 10 μM; read-out: HBE Activity at 10 μM (%).
Consider `Cc1cccc(C)c1-c1cc2nc(n1)NS(=O)(=O)c1cccc(c1)C(=O)N(CC(=O)N1CCC3(CCC3)C1)[C@H](CC(C)(C)C)CO2` [Compound 165], for which the activation at 10 µM is > 600%.

Consider `Cc1cccc(C)c1-c1cc2nc(n1)NS(=O)(=O)c1cccc(c1)C(=O)N(CC(=O)N1Cc3ccccc3C1)[C@H](CC(C)(C)C)CO2` [Compound 168], for which the activation at 10 µM is > 600%.

In the case of `Cc1cccc(C)c1-c1cc2nc(n1)NS(=O)(=O)c1cccc(c1)C(=O)N(CC(=O)N1CCCC3(CCC3)C1)[C@H](CC(C)(C)C)CO2` [Compound 169], the activation at 10 µM is > 600%.

Consider `Cc1cccc(C)c1-c1cc2nc(n1)NS(=O)(=O)c1cccc(c1)C(=O)N(CC(=O)N1CC3(CCC3)C1)[C@H](CC(C)(C)C)CO2` [Compound 170], for which the activation at 10 µM lay within 30 to 60%.

On to `Cc1cccc(C)c1-c1cc2nc(n1)NS(=O)(=O)c1cccc(c1)C(=O)N(CC(=O)NC1CC3(CCC3)C1)[C@H](CC(C)(C)C)CO2` [Compound 171], for which the activation at 10 µM was > 600%.

Consider `Cc1cccc(C)c1-c1cc2nc(n1)NS(=O)(=O)c1cccc(c1)C(=O)N(CC(=O)N(C)C1CCC(C)(C)CC1)[C@H](CC(C)(C)C)CO2` [Compound 172], for which the activation at 10 µM was > 600%.

Take `Cc1cccc(C)c1-c1cc2nc(n1)NS(=O)(=O)c1cccc(c1)C(=O)N(CC(=O)NC1CCC13CCC3)[C@H](CC(C)(C)C)CO2` (stereo partly drawn) [Compound 173]: the activation at 10 µM was > 600%.

Turning to `Cc1cccc(C)c1-c1cc2nc(n1)NS(=O)(=O)c1cccc(c1)C(=O)N(CC(=O)NC1CCCC(C)(C)C1)[C@H](CC(C)(C)C)CO2` (stereo partly drawn) [Compound 175], the activation at 10 µM is > 600%.

Turning to `Cc1cccc(C)c1-c1cc2nc(n1)NS(=O)(=O)c1cccc(c1)C(=O)N(CC(=O)N1CCCCC1c1ccccc1F)[C@H](CC(C)(C)C)CO2` (stereo partly drawn) [Compound 176], the activation at 10 µM is > 600%.

Take `Cc1cccc(C)c1-c1cc2nc(n1)NS(=O)(=O)c1cccc(c1)C(=O)N(CC(=O)N1CCCCC1c1ccc(F)cc1)[C@H](CC(C)(C)C)CO2` (stereo partly drawn) [Compound 177]: the activation at 10 µM is > 600%.

In the case of `Cc1cccc(C)c1-c1cc2nc(n1)NS(=O)(=O)c1cccc(c1)C(=O)N(CC(=O)NC1CCCCC1(C)C)[C@H](CC(C)(C)C)CO2` (stereo partly drawn) [Compound 178], the activation at 10 µM is > 600%.

`Cc1cccc(C)c1-c1cc2nc(n1)NS(=O)(=O)c1cccc(c1)C(=O)N(CC(=O)NC1CCC(C)(C)CC1)[C@H](CC(C)(C)C)CO2` [Compound 179]: the activation at 10 µM is > 600%.

As for `Cc1cccc(C)c1-c1cc2nc(n1)NS(=O)(=O)c1cccc(c1)C(=O)N(CC(=O)N1CCC[C@@H](c3ccccc3)C1)[C@H](CC(C)(C)C)CO2` [Compound 180], the activation at 10 µM was > 600%.

For the molecule `Cc1cccc(C)c1-c1cc2nc(n1)NS(=O)(=O)c1cccc(c1)C(=O)N(CC(=O)N1C[C@H](C)C[C@H](C)C1)[C@H](CC(C)(C)C)CO2` [Compound 181], the activation at 10 µM is > 600%.

In the case of `Cc1cccc(C)c1-c1cc2nc(n1)NS(=O)(=O)c1cccc(c1)C(=O)N(CC(=O)N(C)C1CCOCC1)[C@H](CC(C)(C)C)CO2` [Compound 182], the activation at 10 µM is > 600%.

As to `Cc1cccc(C)c1-c1cc2nc(n1)NS(=O)(=O)c1cccc(c1)C(=O)N(CC(=O)N1CCC3(CCCC3)CC1)[C@H](CC(C)(C)C)CO2` [Compound 183], the activation at 10 µM is > 600%.

Take `Cc1cccc(C)c1-c1cc2nc(n1)NS(=O)(=O)c1cccc(c1)C(=O)N(CC(=O)N1CCC[C@@H](C)C1)[C@H](CC(C)(C)C)CO2` [Compound 184]: the activation at 10 µM is > 600%.

In the case of `Cc1cccc(C)c1-c1cc2nc(n1)NS(=O)(=O)c1cccc(c1)C(=O)N(CC(=O)N1C[C@H](C)O[C@@H](C)C1)[C@H](CC(C)(C)C)CO2` [Compound 185], the activation at 10 µM was > 600%.

As for `Cc1cccc(C)c1-c1cc2nc(n1)NS(=O)(=O)c1cccc(c1)C(=O)N(CC(=O)N1CCC(N(C)C)CC1)[C@H](CC(C)(C)C)CO2` [Compound 186], the activation at 10 µM is > 600%.

In the case of `Cc1cccc(C)c1-c1cc2nc(n1)NS(=O)(=O)c1cccc(c1)C(=O)N(CC(=O)N1CCN(C(C)C)CC1)[C@H](CC(C)(C)C)CO2` [Compound 187], the activation at 10 µM is > 600%.

With `Cc1cccc(C)c1-c1cc2nc(n1)NS(=O)(=O)c1cccc(c1)C(=O)N(CC(=O)N1CCCC1c1ccccc1)[C@H](CC(C)(C)C)CO2` (stereo partly drawn) [Compound 188], the activation at 10 µM was > 600%.

In the case of `Cc1cccc(C)c1-c1cc2nc(n1)NS(=O)(=O)c1cccc(c1)C(=O)N(CC(=O)NC1CCOCC1)[C@H](CC(C)(C)C)CO2` [Compound 189], the activation at 10 µM was > 600%.

Regarding `Cc1cccc(C)c1-c1cc2nc(n1)NS(=O)(=O)c1cccc(c1)C(=O)N(CC(=O)N1[C@H](C)CCC[C@@H]1C)[C@H](CC(C)(C)C)CO2` [Compound 190], the activation at 10 µM is > 600%.

For `Cc1cccc(C)c1-c1cc2nc(n1)NS(=O)(=O)c1cccc(c1)C(=O)N(CC(=O)N1CCC(c3ccccc3)C1)[C@H](CC(C)(C)C)CO2` (stereo partly drawn) [Compound 191], the activation at 10 µM was > 600%.

As to `CCC1CCC(NC(=O)CN2C(=O)c3cccc(c3)S(=O)(=O)Nc3nc(cc(-c4c(C)cccc4C)n3)OC[C@H]2CC(C)(C)C)CC1` (stereo partly drawn) [Compound 192], the activation at 10 µM was > 600%.

On to `Cc1cccc(C)c1-c1cc2nc(n1)NS(=O)(=O)c1cccc(c1)C(=O)N(CC(=O)N(C)CC1CCCOC1)[C@H](CC(C)(C)C)CO2` (stereo partly drawn) [Compound 193], for which the activation at 10 µM was > 600%.

With `Cc1cccc(C)c1-c1cc2nc(n1)NS(=O)(=O)c1cccc(c1)C(=O)N(CC(=O)N[C@H]1CC[C@H](C)CC1)[C@H](CC(C)(C)C)CO2` [Compound 194], the activation at 10 µM was > 600%.

As for `Cc1cccc(C)c1-c1cc2nc(n1)NS(=O)(=O)c1cccc(c1)C(=O)N(CC(=O)N1CCC[C@H](c3ccccc3)C1)[C@H](CC(C)(C)C)CO2` [Compound 195], the activation at 10 µM was > 600%.

On to `Cc1cccc(C)c1-c1cc2nc(n1)NS(=O)(=O)c1cccc(c1)C(=O)N(CC(=O)N1CCCCC1c1ccccc1)[C@H](CC(C)(C)C)CO2` (stereo partly drawn) [Compound 196], for which the activation at 10 µM was > 600%.

For `Cc1cccc(C)c1-c1cc2nc(n1)NS(=O)(=O)c1cccc(c1)C(=O)N(CC(=O)N1CCOCC1)[C@H](CC(C)(C)C)CO2` [Compound 197], the activation at 10 µM was > 600%.

Regarding `Cc1cccc(C)c1-c1cc2nc(n1)NS(=O)(=O)c1cccc(c1)C(=O)N(CC(=O)NC1CCCC1)[C@H](CC(C)(C)C)CO2` [Compound 198], the activation at 10 µM was > 600%.

On to `Cc1cccc(C)c1-c1cc2nc(n1)NS(=O)(=O)c1cccc(c1)C(=O)N(CC(=O)N1C[C@@H](C)O[C@@H](C)C1)[C@H](CC(C)(C)C)CO2` [Compound 199], for which the activation at 10 µM was > 600%.

In the case of `Cc1cccc(C)c1-c1cc2nc(n1)NS(=O)(=O)c1cccc(c1)C(=O)N(CC(=O)N1CCCCC1)[C@H](CC(C)(C)C)CO2` [Compound 200], the activation at 10 µM was > 600%.

On to `Cc1cccc(C)c1-c1cc2nc(n1)NS(=O)(=O)c1cccc(c1)C(=O)N(CC(=O)N1CCC(OC(C)C)C1)[C@H](CC(C)(C)C)CO2` (stereo partly drawn) [Compound 201], for which the activation at 10 µM was > 600%.

On to `Cc1cccc(C)c1-c1cc2nc(n1)NS(=O)(=O)c1cccc(c1)C(=O)N(CC(=O)N1C[C@@H](C)[C@@H](C)C1)[C@H](CC(C)(C)C)CO2` [Compound 202], for which the activation at 10 µM was > 600%.

Take `Cc1cccc(C)c1-c1cc2nc(n1)NS(=O)(=O)c1cccc(c1)C(=O)N(CC(=O)N1CCC(c3ccccc3)CC1)[C@H](CC(C)(C)C)CO2` [Compound 203]: the activation at 10 µM is > 600%.

For `Cc1cccc(C)c1-c1cc2nc(n1)NS(=O)(=O)c1cccc(c1)C(=O)N(CC(=O)N1C[C@H](C)CC1(C)C)[C@H](CC(C)(C)C)CO2` [Compound 204], the activation at 10 µM is > 600%.

With `Cc1cccc(C)c1-c1cc2nc(n1)NS(=O)(=O)c1cccc(c1)C(=O)N(CC(=O)NC1CCCCC1)[C@H](CC(C)(C)C)CO2` [Compound 205], the activation at 10 µM was > 600%.

For `Cc1cccc(C)c1-c1cc2nc(n1)NS(=O)(=O)c1cccc(c1)C(=O)N(CC(=O)N1CCc3c(Cl)nc(C(F)(F)F)nc3C1)[C@H](CC(C)(C)C)CO2` [Compound 206], the activation at 10 µM was in the range of 30 to 60%.

With `Cc1cccc(C)c1-c1cc2nc(n1)NS(=O)(=O)c1cccc(c1)C(=O)N(CC(=O)N1CCc3ccccc3C1)[C@H](CC(C)(C)C)CO2` [Compound 207], the activation at 10 µM is > 600%.

For `Cc1cccc(C)c1-c1cc2nc(n1)NS(=O)(=O)c1cccc(c1)C(=O)N(CC(=O)N1CCC(C)(C)CC1)[C@H](CC(C)(C)C)CO2` [Compound 208], the activation at 10 µM is > 600%.

With `Cc1ccc2c(c1)CCN(C(=O)CN1C(=O)c3cccc(c3)S(=O)(=O)Nc3nc(cc(-c4c(C)cccc4C)n3)OC[C@H]1CC(C)(C)C)C2` [Compound 209], the activation at 10 µM is > 600%.

`Cc1cccc(C)c1-c1cc2nc(n1)NS(=O)(=O)c1cccc(c1)C(=O)N(CC(=O)N1CCC(C(C)(C)C)CC1)[C@H](CC(C)(C)C)CO2` [Compound 210]: the activation at 10 µM was > 600%.

Still in this assay, the particulars now being: Table 13; read-out: HBE EC50.
Regarding `Cc1cccc(C)c1-c1cc2nc(n1)NS(=O)(=O)c1cccc(c1)C(=O)N(Cc1ccc(C3CC4(COC4)C3)cn1)[C@H](CC(C)(C)C)CO2` [Compound 164], the EC50 was < 1000 nM.

The same assay, now with this note: Table 13; read-out: HBE Max Activity (%).
Turning to `Cc1cccc(C)c1-c1cc2nc(n1)NS(=O)(=O)c1cccc(c1)C(=O)N(Cc1ccc(C3CC4(COC4)C3)cn1)[C@H](CC(C)(C)C)CO2` [Compound 164], the Emax was > 60%.

Broadly, the EC50 is the concentration giving half of the maximal effect.
